According to the NIST ThermoML archive (doi:10.1021/acs.jced.6b00332):

Assay: mn = molality of the nth substance listed, in mol/kg
Conditions: 100 kPa, Liquid; for speed of sound: Frequency=3 MHz, Sing-around technique in a fixed-path interferometer; for mass density: Vibrating tube method

CCCCCCCCCCCC[N+](C)(C)C.[Br-] [dodecyltrimethylammonium bromide] + O
Conditions	mass density [kg/m3]	speed of sound [m/s]
293.15 K, m1 = 0.003	998.31	1483.3
293.15 K, m1 = 0.006	998.37	1484.2
293.15 K, m1 = 0.009	998.43	1484.9
293.15 K, m1 = 0.012	998.49	1485.6
293.15 K, m1 = 0.015	998.54	1486.3
293.15 K, m1 = 0.018	998.6	1486.7
293.15 K, m1 = 0.021	998.65	1486.8
293.15 K, m1 = 0.024	998.7	1486.9
293.15 K, m1 = 0.027	998.75	1487
293.15 K, m1 = 0.03	998.81	1487
293.15 K, m1 = 0.033	998.87	1487.1
293.15 K, m1 = 0.036	998.92	1487.1
293.15 K, m1 = 0.039	998.95	1487.1
293.15 K, m1 = 0.042	999	1487.1
293.15 K, m1 = 0.045	999.05	1487
298.15 K, m1 = 0.003	997.2	1497.2
298.15 K, m1 = 0.006	997.26	1497.9
298.15 K, m1 = 0.009	997.32	1498.6
298.15 K, m1 = 0.012	997.37	1499.2
298.15 K, m1 = 0.015	997.43	1499.9
298.15 K, m1 = 0.018	997.49	1500.2
298.15 K, m1 = 0.021	997.53	1500.3
298.15 K, m1 = 0.024	997.58	1500.3
298.15 K, m1 = 0.027	997.63	1500.4
298.15 K, m1 = 0.03	997.67	1500.4
298.15 K, m1 = 0.033	997.71	1500.5
298.15 K, m1 = 0.036	997.75	1500.4
298.15 K, m1 = 0.039	997.79	1500.5
298.15 K, m1 = 0.042	997.82	1500.4
298.15 K, m1 = 0.045	997.85	1500.5
303.15 K, m1 = 0.003	995.71	1509.7
303.15 K, m1 = 0.006	995.76	1510.3
303.15 K, m1 = 0.009	995.82	1511
303.15 K, m1 = 0.012	995.87	1511.6
303.15 K, m1 = 0.015	995.92	1512
303.15 K, m1 = 0.018	995.97	1512.2
303.15 K, m1 = 0.021	996.02	1512.2
303.15 K, m1 = 0.024	996.07	1512.2
303.15 K, m1 = 0.027	996.11	1512.2
303.15 K, m1 = 0.03	996.16	1512.2
303.15 K, m1 = 0.033	996.21	1512.2
303.15 K, m1 = 0.036	996.24	1512.2
303.15 K, m1 = 0.039	996.29	1512.3
303.15 K, m1 = 0.042	996.32	1512.2
303.15 K, m1 = 0.045	996.36	1512.3
308.15 K, m1 = 0.003	994.26	1520.3
308.15 K, m1 = 0.006	994.31	1520.9
308.15 K, m1 = 0.009	994.36	1521.5
308.15 K, m1 = 0.012	994.41	1522
308.15 K, m1 = 0.015	994.46	1522.6
308.15 K, m1 = 0.018	994.51	1522.6
308.15 K, m1 = 0.021	994.55	1522.6
308.15 K, m1 = 0.024	994.59	1522.6
308.15 K, m1 = 0.027	994.63	1522.6
308.15 K, m1 = 0.03	994.67	1522.5
308.15 K, m1 = 0.033	994.72	1522.5
308.15 K, m1 = 0.036	994.77	1522.5
308.15 K, m1 = 0.039	994.79	1522.5
308.15 K, m1 = 0.042	994.82	1522.6
308.15 K, m1 = 0.045	994.84	1522.5
313.15 K, m1 = 0.003	992.29	1529.4
313.15 K, m1 = 0.006	992.33	1529.9
313.15 K, m1 = 0.009	992.38	1530.4
313.15 K, m1 = 0.012	992.42	1530.9
313.15 K, m1 = 0.015	992.47	1531.4
313.15 K, m1 = 0.018	992.51	1531.5
313.15 K, m1 = 0.021	992.55	1531.4
313.15 K, m1 = 0.024	992.59	1531.4
313.15 K, m1 = 0.027	992.63	1531.3
313.15 K, m1 = 0.03	992.67	1531.3
313.15 K, m1 = 0.033	992.71	1531.2
313.15 K, m1 = 0.036	992.77	1531.3
313.15 K, m1 = 0.039	992.81	1531.3
313.15 K, m1 = 0.042	992.87	1531.3
313.15 K, m1 = 0.045	992.9	1531.2
318.15 K, m1 = 0.003	990.28	1536.3
318.15 K, m1 = 0.006	990.33	1536.7
318.15 K, m1 = 0.009	990.37	1537.2
318.15 K, m1 = 0.012	990.39	1537.8
318.15 K, m1 = 0.015	990.42	1538.2
318.15 K, m1 = 0.018	990.45	1538.4
318.15 K, m1 = 0.021	990.48	1538.6
318.15 K, m1 = 0.024	990.52	1538.7
318.15 K, m1 = 0.027	990.55	1538.7
318.15 K, m1 = 0.03	990.57	1538.7
318.15 K, m1 = 0.033	990.61	1538.9
318.15 K, m1 = 0.036	990.64	1538.9
318.15 K, m1 = 0.039	990.67	1539
318.15 K, m1 = 0.042	990.7	1539.1
318.15 K, m1 = 0.045	990.72	1539.1

CCCC[N+](CCCC)(CCCC)CCCC.[Br-] [tetrabutylammonium bromide] + O
m1 = 0.01
Conditions	mass density [kg/m3]	speed of sound [m/s]
293.15 K	998.57	1485.3
298.15 K	997.35	1499.2
303.15 K	995.88	1511.4
308.15 K	994.29	1521.9
313.15 K	992.33	1531
318.15 K	990.43	1538.6

CCCCC[N+](CCCCC)(CCCCC)CCCCC.[Br-] [tetrapentylammonium bromide] + O
m1 = 0.01
Conditions	mass density [kg/m3]	speed of sound [m/s]
293.15 K	998.34	1485.3
298.15 K	997	1499.1
303.15 K	995.7	1511.2
308.15 K	994.05	1521.6
313.15 K	991.93	1530.5
318.15 K	990.16	1537.9
